Results as given in patent publication US20100227853A1, “INHIBITORS OF CYCLIC AMP PHOSPHODIESTERASES” (Trustees of Boston College, priority 2008, published 2010).

What was measured:
[1] = target: T1, PDE4A1 (Mus musculus, UniProt O89084); assay: 5FOA growth assay (high throughput screen, ED50) in fission yeast strain expressing PDE4A1; assay type: cell-based; details: high throughput 5FOA growth screen; greater than 8.53 = statistically-significant inhibitor
T1 construct: targets used in the assays are full-length proteins (as opposed to simply the catalytic domain); expressed in transfected cells; host or cells: Schizosaccharomyces pombe, PDE gene integrated in place of cgs2
T1 sequence (O89084 1-610 isoform O89084-2): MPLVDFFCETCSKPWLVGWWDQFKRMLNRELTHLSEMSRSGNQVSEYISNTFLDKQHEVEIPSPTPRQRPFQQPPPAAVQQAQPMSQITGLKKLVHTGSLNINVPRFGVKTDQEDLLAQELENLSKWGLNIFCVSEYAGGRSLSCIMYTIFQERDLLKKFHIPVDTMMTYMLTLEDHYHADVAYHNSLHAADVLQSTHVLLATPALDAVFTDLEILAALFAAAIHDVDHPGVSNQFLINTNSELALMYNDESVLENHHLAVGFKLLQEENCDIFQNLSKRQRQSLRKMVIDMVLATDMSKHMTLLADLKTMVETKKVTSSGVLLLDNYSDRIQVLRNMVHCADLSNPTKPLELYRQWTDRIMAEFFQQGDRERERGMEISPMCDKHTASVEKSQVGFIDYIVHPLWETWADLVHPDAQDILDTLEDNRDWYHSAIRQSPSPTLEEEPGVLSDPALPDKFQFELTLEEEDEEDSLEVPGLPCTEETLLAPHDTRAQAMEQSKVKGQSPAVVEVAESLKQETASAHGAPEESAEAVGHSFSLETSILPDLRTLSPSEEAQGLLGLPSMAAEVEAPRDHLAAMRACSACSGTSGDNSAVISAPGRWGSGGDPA
Protocol: (§1) High throughput drug screens were carried out at the Broad Institute's Chemical Biology Program screening facility (Broad Institute, Cambridge, Mass.). Depending upon the strain, cultures were pregrown to exponential phase in EMM complete medium containing from 0.5 to 2.5 mM cAMP to repress fbp1-ura4 transcription. […] Starting cell concentrations ranged from 0.5×10^5 to 4×10^5 cells/ml depending on the screening strain. […] Other positive control dishes contained 5 mM cAMP in the 5FOA medium. Cultures were grown for 48 hours at 30° C., sealed in an airtight container with moist paper towels to prevent evaporation. Optical densities (OD600) of cultures were measured using a microplate reader. Bioinformatic analysis of the results to determine composite Z scores was performed as previously described^30, 31.
(§2) To determine whether the 5FOA growth phenotype could be exploited for high throughput drug screening, strains expressing PDE2A, PDE4A, PDE4B, or PDE8A were pre-grown in EMM medium containing cAMP and then transferred to 5FOA medium in 384 well microtiter plates in the presence or absence of cAMP. OD600 measurements were taken after 48 hours incubation at 30° C.
(§3) Cells were pregrown in EMM medium [MP Biomedicals (Solon, Ohio), 3% glucose, filter-sterilized to avoid carmelization, which would introduce variability into the optical density of the medium] containing from 0 mM to 2.5 mM cAMP (or either 0.5 mM or 1.0 mM cGMP). This was to repress expression of the fbp1-ura4 reporter prior to exposure of cells to 5FOA medium. Cells were grown at 30° C. to exponential phase (approximately 10^7 cells/ml). […] Starting cell concentrations ranged from 0.5×10^5 to 4×10^5 cells/ml depending on the screening strain. […] Other positive control dishes contained 5 mM cAMP in the 5FOA medium for PDEs that lack appropriate control compounds. Cultures were grown for 48 hours at 30° C., sealed in an airtight container with moist paper towels to prevent evaporation. Optical densities (OD600) of cultures were measured using a microplate reader. Bioinformatic analysis of the results to determine composite Z scores was performed as previously described (1, 3).

[2] = target: T2, PDE4B3 (Mus musculus, UniProt Q8VBU5); assay: 5FOA growth assay in fission yeast strain expressing PDE4B3; assay type: cell-based, Murine; details: for Composite Z score, PDE4B3: high throughput 5FOA growth screen
T2 construct: targets used in the assays are full-length proteins (as opposed to simply the catalytic domain); expressed in transfected cells; host or cells: Schizosaccharomyces pombe, PDE gene integrated in place of cgs2
T2 sequence (Q8VBU5 1-721): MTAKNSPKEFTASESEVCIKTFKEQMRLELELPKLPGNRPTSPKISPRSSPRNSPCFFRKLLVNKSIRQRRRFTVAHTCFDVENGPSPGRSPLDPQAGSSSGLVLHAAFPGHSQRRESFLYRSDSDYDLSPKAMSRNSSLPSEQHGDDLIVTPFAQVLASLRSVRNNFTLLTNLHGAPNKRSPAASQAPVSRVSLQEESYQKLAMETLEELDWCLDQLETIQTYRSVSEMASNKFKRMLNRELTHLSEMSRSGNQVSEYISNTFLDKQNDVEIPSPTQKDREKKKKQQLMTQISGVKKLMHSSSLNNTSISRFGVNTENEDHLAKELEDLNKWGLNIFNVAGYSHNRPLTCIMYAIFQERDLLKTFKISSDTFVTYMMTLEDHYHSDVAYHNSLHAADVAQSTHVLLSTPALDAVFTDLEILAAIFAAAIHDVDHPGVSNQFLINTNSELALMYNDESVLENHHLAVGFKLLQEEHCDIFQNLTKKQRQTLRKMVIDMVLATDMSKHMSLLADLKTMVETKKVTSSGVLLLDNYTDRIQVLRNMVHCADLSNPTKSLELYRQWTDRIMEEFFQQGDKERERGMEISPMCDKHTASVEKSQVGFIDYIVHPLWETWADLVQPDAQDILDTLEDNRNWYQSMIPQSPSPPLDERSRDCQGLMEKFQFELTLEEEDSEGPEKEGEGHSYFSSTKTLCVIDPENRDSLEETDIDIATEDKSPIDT
Protocol: as §1, §2, §3

Row | SMILES | Composite Z score, PDE4A1 [1] | Composite Z score, PDE4B3 [2] | 1 Assay (20 uM) 4B3 ([2]; 20 uM)
1 | CCN(CC)CCCNC(=O)c1sc2ncnc(N3CCN(c4ccc(OC)cc4)CC3)c2c1C [Compound 1158C03] | 2.6937 | – | –
2 | Cc1nc(N2CCCN(C)CC2)c2c3c(sc2n1)CCC3 [Compound 1415C05] | 0.327 | 0.6059 | –
3 | CCC(CO)Nc1nc(C)nc2sc3c(c12)CCC3 (stereo not shown) [Compound 1422J17] | 0.1866 | −0.936 | –
4 | Cc1c(C(=O)N2CCC3(CC2)OCCO3)sc2ncnc(N(C)c3ccccc3)c12 [1393 E07] | 3.1682 | −1.206 | –
5 | Cc1nc(N2CCC(C)CC2)c2c(C)c(C(=O)N3CCOCC3)sc2n1 [Compound 1424A12] | 2.2036 | −2.898 | –
6 | Cc1c(C(=O)NCC2CCCO2)sc2ncnc(N3CCN(c4ccccc4)CC3)c12 (stereo not shown) [1159 E19] | 1.0613 | – | –
7 | COC(=O)c1ccccc1NC(=O)c1sc2ncnc(N3CCN(c4ccccn4)CC3)c2c1C [Compound 1159K09] | 0.5937 | – | –
8 | COc1ccc(C(=O)Nc2ncnc3sc4c(c23)CCCC4)cc1OC [Compound 1414F18] | 9.1375 | −0.382 | –
9 | COCCCNC(=O)c1sc2ncnc(N3CCc4ccccc4C3)c2c1C [Compound 1159M19] | 5.0576 | – | –
10 | CCOC(=O)CNC(=O)c1sc2ncnc(N3CCN(c4ccccc4F)CC3)c2c1C [Compound 1159A19] | 2.4477 | – | –
11 | Cc1c(C(=O)NCc2ccccn2)sc2ncnc(N3CCc4ccccc4C3)c12 [Compound 1159O19] | 11.945 | – | –
12 | Cc1sc2ncnc(NCCc3ccc4c(c3)OCCO4)c2c1C [Compound 1426G17] | 10.127 | 25.393 | –
13 | Cc1sc2ncnc(NC3CCN(Cc4ccccc4)CC3)c2c1C [Compound 1426C09] | −0.147 | −0.516 | –
14 | Cc1c(C(=O)NCc2ccco2)sc2ncnc(N3CCN(c4ccccc4)CC3)c12 [Compound 1159G19] | 7.7398 | – | –
15 | c1cncc(CNc2ncnc3sc4c(c23)CCCC4)c1 [Compound 1423I22] | 1.7161 | 0.501 | –
16 | CC(C)(C)C(=O)Nc1ncnc2sc3c(c12)CCCC3 [Compound 1379O22] | 1.5734 | −0.703 | –
17 | N#CC1(c2ccccc2)CCc2c(sc3ncnc(N4CCCC4)c23)C1 (stereo not shown) [Compound 1380I09] | 1.2506 | −1.076 | –
18 | CCC(CO)Nc1nc(C)nc2sc3c(c12)CCC3 (stereo not shown) [Compound 1380M03] | −1.217 | −2.398 | –
19 | CC1CCc2c(sc3nc(SCC(N)=O)nc(NCc4ccccc4)c23)C1 (stereo not shown) [Compound 1439G17] | 6.7542 | 47.874 | –
20 | CC(C)N(C)c1ncnc2sc3c(c12)CCC3 [Compound 1407G21] | 12.819 | 0.0445 | –
21 | COc1cc(NC(=O)c2sc3nc(C)nc(N4CCCCC4C)c3c2C)cc(OC)c1OC (stereo not shown) [Compound 1159M15] | 17.363 | – | –
22 | CCC(CO)Nc1nc(C)nc2sc3c(c12)CCCC3 (stereo not shown) [Compound 1426O11] | 0.4682 | 0.0693 | –

Row | SMILES | Composite Z score, PDE4A1 [1] | Composite Z score, PDE4B3 [2] | 1 Assay (20 uM) 4B3 ([2]; 20 uM)
23 | Cc1nc(NCc2ccco2)c2c3c(sc2n1)CCC3 [Compound 1426I13] | −0.033 | −0.071 | –
24 | CC1CCc2c(sc3ncnc(NCCN4CCOCC4)c23)C1 (stereo not shown) [Compound 1425N16] | 0.4867 | −1.074 | –
25 | O=C(Nc1ncnc2sc3c(c12)CCC3)c1ccccc1 [Compound 1380I07] | 36.663 | −0.935 | –
26 | Cc1c(C(=O)Nc2ccc3c(c2)OCO3)sc2ncnc(N3CCc4ccccc4C3)c12 [Compound 1159C21] | 3.9976 | – | –
27 | CCN(CC)c1ncnc2sc3c(c12)CCC(C#N)(c1ccccc1)C3 (stereo not shown) [Compound 1380G04] | 20.429 | −0.752 | –
28 | O=C(Nc1ncnc2sc3c(c12)CCCC3)C(F)(F)F [Compound 1406P09] | 0.1456 | 0.5128 | –
29 | COCCCNC(=O)c1sc2ncnc(N3CCN(c4ccccc4F)CC3)c2c1C [Compound 1159C19] | 2.6846 | – | –
30 | COCCNC(=O)c1sc2ncnc(N3CCN(c4ccccn4)CC3)c2c1C [Compound 1159M09] | 1.1811 | – | –
31 | CCOC(=O)c1sc2ncnc(N3CCc4ccccc4C3)c2c1C [Compound 1379L18] | −0.753 | 1.8207 | –
32 | CCN(CC)c1ncnc2sc(C)c(C)c12 [Compound 1403J21] | 1.647 | 0.0332 | –
33 | OCCN(CCO)c1ncnc2sc3c(c12)CCCC3 [1415 E01] | 2.2076 | 0.8257 | –
34 | Cc1sc2ncnc(NCc3ccc4c(c3)OCO4)c2c1C [Compound 1426A15] | 1.5745 | 0.9419 | –
35 | CC1CCc2c(sc3nc(SCC(N)=O)nc(NCc4ccccc4)c23)C1 (stereo not shown) [Compound 1157L22] | 2.3434 | – | –
36 | CCOC(=O)c1sc2ncnc(N3CCC4(CC3)OCCO4)c2c1C [Compound 1159G15] | 5.3411 | – | –
37 | CCCCNC(=O)c1sc2ncnc(N3CCc4ccccc4C3)c2c1C [Compound 1159K19] | 5.4376 | – | –
38 | N#Cc1sc(C(N)=O)c(-c2ccco2)c1-c1ccco1 [1449, A02] | – | – | 1.8244 ND ND ND ND
39 | COc1cc(NC(=O)c2sc3nc(C)nc(N4CCOCC4)c3c2C)cc(OC)c1OC [Compound 1159O09] | 0.8757 | – | –
40 | Cc1c(C(=O)NCc2ccco2)sc2ncnc(N3CCN(c4ccccc4F)CC3)c12 [Compound 1159O17] | 3.616 | – | –
41 | Cc1c(C(=O)NCc2ccco2)sc2ncnc(N3CCc4ccccc4C3)c12 [Compound 1159I19] | 26.235 | – | –
42 | CCOC(=O)c1sc2nc(CC(=O)OC)nc(NCCN3CCOCC3)c2c1C [Compound 1158A03] | 0.3744 | – | –
43 | Cc1c(C(=O)NCC2CCCO2)sc2ncnc(N3CCN(c4ccccc4F)CC3)c12 (stereo not shown) [Compound 1159M17] | 1.9801 | – | –
44 | Cc1nc(N2CCN(C)CC2)c2c(C)c(C(=O)N3CCN(c4cccc(Cl)c4)CC3)sc2n1 [Compound 1158G03] | −0.078 | – | –
